Measured values taken from patent US20250114350A1, “INHIBITORS OF […] AS ANTIFUNGAL AGENTS” (Regents of the University of Minnesota, priority 2023, published 2025).
Converted amounts (≈) assume the structure as drawn.

Columns and labels:
[1] = target: CnFTase (C. neoformans farnesyl transferase, α/β heterodimer) (Cryptococcus neoformans, UniProt J9VSJ6+T2BPA1); experiment: CnFTase activity assay: farnesylation of a dansylated (fluorescent) peptide, inhibitor concentration giving half-maximal enzyme rates at 1 μM FPP (1μMIC50); conditions: read-out: CnFTase IC50 (1μMIC50), condition A: 20 nM CnFTase, dansyl-GCVVM 0.62 μM, Tris-HCl pH 7.5, ZnCl2 12.5 μM, 2.5% DMSO, room temperature, triplicate
Description: CnFTase activity assay. […] Final CnFTase concentrations (from 5× or 10× stocks in 20 mM Tris-HCl pH7.5, 20 mM NaCl, 5 μM ZnCl2, 1 mM TCEP, 1 mg/mL BSA): A, 20 nM; B: 4.4, 6.7, 10 nM triplets. […] For experiments that included phosphate, pH 7.5 stock was added to the desired final concentration. […] Data for determining ^1μMIC50 values (condition A) was collected in triplicate. Initial rates, vo, were extracted by fitting a straight line to the initial to tmax seconds of the reaction progress curves, where tmax values were selected by inspection and entered into curator tables for automated analysis. 1μMIC50 were determined by fitting a single-site Langmuir ligand-binding isotherm to the dependence of vo on inhibitor concentration (2, see below). All other experiments (condition B) all other experiments (condition B) used three different CnFTase concentrations, collecting progress curves as a function of FPP, inhibitor, and phosphate concentrations. The resulting triplet of progress curves was used to extract vo values automatically by minimizing
If x is an inhibitor concentration, then IC50=Ka^−1. […] In general, baseline signals, σ, (α or β) can be constant, or linear functions of ligand concentration x

[2] = system: C. neoformans FTase (CnFTase); experiment: CnFTase activity assay, farnesylation of a fluorescent (dansylated) peptide, 1μMIC50; assay type: biochemical, Cryptococcus neoformans; conditions: pairwise comparison of analogues differing in one R group
Description: The library of 23 compounds contained leads with 60- to 150-fold enhanced ^1μMIC50 values.
CnFTase activity assay. The farnesyl transferase activity was measured by measuring the time dependence of the fluorescence emission intensity increase due to farnesylation of a dansylated peptide (Cassidy, P. B, et al., Methods Enzymol, 1995, 250, 30-43). Measurements were taken at room temperature in a 96-well black polystyrene, half area, flat bottom, non-binding surface plate using a SpectraMax M5e plate reader (excitation wavelength, 340 nm; emission wavelength 525 nm; emission high-pass filter, 455 nm). […] Final CnFTase concentrations (from 5× or 10× stocks in 20 mM Tris-HCl pH7.5, 20 mM NaCl, 5 μM ZnCl2, 1 mM TCEP, 1 mg/mL BSA): A, 20 nM; B: 4.4, 6.7, 10 nM triplets. […] For experiments that included phosphate, pH 7.5 stock was added to the desired final concentration. Data was analyzed using Python scripts for the Biomolecular Computing (BMC) package, included in the Dryad electronic repository. Data for determining ^1μMIC50 values (condition A) was collected in triplicate. Initial rates, vo, were extracted by fitting a straight line to the initial to tmax seconds of the reaction progress curves, where tmax values were selected by inspection and entered into curator tables for automated analysis. 1μMIC50 were determined by fitting a single-site Langmuir ligand-binding isotherm to the dependence of vo on inhibitor concentration (2, see below). All other experiments (condition B) […] used three different CnFTase concentrations, collecting progress curves as a function of FPP, inhibitor, and phosphate concentrations. The resulting triplet of progress curves was used to extract vo values automatically by minimizing
Single-site binding isotherms. Signals, S, resulting from a binding reaction were fit to
where α and β are the baselines associated with the apo-protein and its ligand complex, respectively, and y fractional occupancy of the binding site
If x is an inhibitor concentration, then IC50=Ka^−1. For Michaelis-Menten analysis 2 is reduced to a standard form (Bahar, I.; Jernigan, R. L.; Dill, K. A. Protein Actions, principles & modeling. Garland Science: 2017) with S=vo (initial rates), α=0, β=Vmax (maximal velocity), and KM=Ka^−1 (substrate dissociation constant). In general, baseline signals, σ, (α or β) can be constant, or linear functions of ligand concentration x

C. neoformans = experiment: Minimum inhibitory concentration (MIC): disc diffusion and broth microdilution; conditions: Cryptococcus neoformans
Description: Antifungal activity was determined by measuring minimum inhibitory concentrations (MIC) of C. neoformans by two methods: a solid medium disc diffusion assay and broth microdilution assay.
Disc diffusion assay. Overnight cultures of C. neoformans (about 18 hours) were normalized to OD600 0.6, diluted 1/10, and 200 μL of each sample were spread onto either a YPD or YPGal (yeast extract-peptone medium with 3% galactose) plate using sterile glass beads. After drying, 10 μL of compound or solvent control (DMSO) was added to sterile 6 mm filter discs on each plate. Plates were incubated for 48 hours at 37° C.
Minimum inhibitory concentration (MIC) assays. C. neoformans: Overnight cultures (˜18 h) of C. neoformans strains incubated in YPD medium were diluted to 500 cells/ml in RPMI medium buffered with MOPS. Cells were aliquoted (200 μL/well) in black-wall, clear-bottom 96-wells plates (Greiner). Compound stock solutions in DMSO ranged from 9 μM to 20 mM, and added to 200 μL cell suspension aliquoted in 96-well plates. Final aqueous concentrations ranged from 200 μM to 0.09 μM, limiting DMSO to 1%. After 48-hr incubation at 37° C. or 30° C. for 48 h, 10% AlamarBlue (BioRad) was added. The end-point fluorescence intensity of reduced AlamarBlue was measured using a fluorescence plate reader (FLUORStar Optima plate reader) at the time point the indicator turned from blue to pink in healthy control cells.^51 Assays were performed in duplicate.

Chain of CnFTase (C. neoformans farnesyl transferase, α/β heterodimer) (J9VSJ6 entry or part of it): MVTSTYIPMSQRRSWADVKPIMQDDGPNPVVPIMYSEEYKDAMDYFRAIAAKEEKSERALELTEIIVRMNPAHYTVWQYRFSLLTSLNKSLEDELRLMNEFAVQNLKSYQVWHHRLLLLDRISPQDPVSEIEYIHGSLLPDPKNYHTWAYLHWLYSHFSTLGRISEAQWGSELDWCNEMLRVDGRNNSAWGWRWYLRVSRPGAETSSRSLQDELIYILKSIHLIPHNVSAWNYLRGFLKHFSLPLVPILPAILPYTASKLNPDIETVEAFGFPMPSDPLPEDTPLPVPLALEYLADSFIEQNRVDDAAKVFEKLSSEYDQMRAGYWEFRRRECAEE
Chain of CnFTase (C. neoformans farnesyl transferase, α/β heterodimer) (T2BPA1 entry or part of it): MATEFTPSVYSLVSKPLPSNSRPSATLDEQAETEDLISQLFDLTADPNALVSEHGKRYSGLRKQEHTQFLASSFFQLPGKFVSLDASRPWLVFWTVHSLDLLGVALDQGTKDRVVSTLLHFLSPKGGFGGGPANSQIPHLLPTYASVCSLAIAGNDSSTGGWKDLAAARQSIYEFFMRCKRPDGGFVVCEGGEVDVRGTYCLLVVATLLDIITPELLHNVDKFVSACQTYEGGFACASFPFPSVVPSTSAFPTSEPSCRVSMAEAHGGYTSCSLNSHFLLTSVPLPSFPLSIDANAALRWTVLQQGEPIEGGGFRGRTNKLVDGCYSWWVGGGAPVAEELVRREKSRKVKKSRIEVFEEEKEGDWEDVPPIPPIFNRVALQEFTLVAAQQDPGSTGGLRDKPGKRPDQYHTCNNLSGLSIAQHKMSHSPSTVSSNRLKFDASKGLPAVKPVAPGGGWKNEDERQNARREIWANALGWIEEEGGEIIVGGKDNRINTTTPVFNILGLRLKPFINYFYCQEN

Row | Compound | IC50 [1] | change of affinity relative to the comparator analogue (cf.) [2] | MIC (C. neoformans)
1 | CCCC[C@H]1CN(c2cccc(OC(F)(F)F)c2)C(=O)CN1Cc1cncn1Cc1ccc(C#N)cc1 [Compound 2d, (S)-4-((5-((2-butyl-5-oxo-4-(3-(trifluoromethoxy)-phenyl)piperazin-1-yl)methyl)-1H-imidazol-1-yl)methyl)benzonitrile] | 340 ± 220 nM |  | 
2 | CCCC[C@H]1CN(c2cccc(OC(F)(F)F)c2)C(=O)CN1Cc1cncn1Cc1ccccc1 [Compound 2i, (S)-4-((1-Benzyl-1H-imidazol-5-yl)methyl)-5-butyl-1-(3-(trifluoromethoxy)phenyl)piperazin-2-one] | 1900 ± 1700 nM |  | 
3 | CCCC[C@H]1CN(c2cccc(OC(F)(F)F)c2)C(=O)CN1Cc1cncn1Cc1ccc(Oc2ccccc2)c(C#N)c1 [Compound 2t, (S)-5-((5-((2-Butyl-5-oxo-4-(3-(trifluoromethoxy)phenyl)-piperazin-1-yl)methyl)-1H-imidazol-1-yl)methyl)-2-phenoxybenzonitrile] | 210 ± 100 nM |  | 
4 | CCCCC[C@H]1CN(c2cccc(OC(F)(F)F)c2)C(=O)CN1Cc1cncn1Cc1ccc(Br)cc1 [Compound 21, (S)-4-((1-(4-Bromobenzyl)-1H-imidazol-5-yl)methyl)-5-pentyl-1-(3-(trifluoromethoxy)phenyl)piperazin-2-one] |  | showed little improvement | 3 to 6 µM (≈ 1.74 to 3.48 µg/mL)
5 | CCCC[C@H]1CN(c2cccc(OC(F)(F)F)c2)C(=O)CN1Cc1cncn1Cc1ccc(C(F)(F)F)cc1 [Compound 2h, (S)-5-Butyl-1-(3-(trifluoromethoxy)phenyl)-4-((1-(4-(trifluoromethyl)benzyl)-1H-imidazol-5-yl)methyl)piperazin-2-one] | 280 ± 150 nM |  | 3 to 6 µM (≈ 1.66 to 3.33 µg/mL)
6 | CCC[C@H]1CN(c2cccc(OC(F)(F)F)c2)C(=O)CN1Cc1cncn1Cc1ccc(Br)cc1 [Compound 2k, (S)-4-((1-(4-Bromobenzyl)-1H-imidazol-5-yl)methyl)-5-propyl-1-(3-(trifluoromethoxy)phenyl) piperazin-2-one] | 1100 ± 510 nM | reduced affinity | 3 to 6 µM (≈ 1.65 to 3.31 µg/mL)
7 | N#Cc1ccc(Cn2cncc2CN2CCN(c3cccc(OC(F)(F)F)c3)C(=O)C2)cc1Oc1ccccc1 [Compound 2w, 4-((5-((3-Oxo-4-(3-(trifluoromethoxy)phenyl)piperazin-1-yl)methyl)-1H-imidazol-1-yl)methyl)-2-phenoxybenzonitrile] | 2600 ± 1400 nM | did not alter affinities | 
8 | CCCC[C@H]1CN(c2cccc(OC(F)(F)F)c2)C(=O)CN1Cc1cncn1Cc1cccc(C#N)c1 [Compound 2o, (S)-3-((5-((2-Butyl-5-oxo-4-(3-(trifluoromethoxy)-phenyl)piperazin-1-yl)methyl)-1H-imidazol-1-yl)methyl)benzonitrile] | 740 ± 310 nM |  | 
9 | CCCC[C@H]1CN(c2cccc(OC(F)(F)F)c2)C(=O)CN1Cc1cncn1Cc1ccc(C#N)c(Oc2ccccc2)c1 [Compound 2u, (S)-4-((5-((2-butyl-5-oxo-4-(3-(trifluoromethoxy)phenyl)-piperazin-1-yl)methyl)-1H-imidazol-1-yl)methyl)-2-phenoxybenzonitrile] | 150 ± 60 nM | did not alter affinities | 
10 | CCCCC[C@H]1CN(c2cccc(OC(F)(F)F)c2)C(=O)CN1Cc1cncn1Cc1ccc(Br)cc1 [Compound 2l, (S)-4-((1-(4-Bromobenzyl)-1H-imidazol-5-yl)methyl)-5-pentyl-1-(3-(trifluoromethoxy)phenyl)piperazin-2-one] | 160 ± 20 nM |  | 
11 | CCCC[C@H]1CN(c2cccc(OC(F)(F)F)c2)C(=O)CN1Cc1cncn1Cc1ccc(Cl)cc1 [Compound 2e] | 260 ± 130 nM |  | 3 to 6 µM (≈ 1.56 to 3.13 µg/mL)
12 | N#Cc1cc(Cn2cncc2CN2CCN(c3cccc(OC(F)(F)F)c3)C(=O)C2)ccc1F [Compound 2r, 2-Fluoro-5-((5-((3-oxo-4-(3-(trifluoromethoxy)phenyl)piperazin-1-yl)methyl)-1H-imidazol-1-yl)methyl)benzonitrile] | 550 ± 30 nM |  | 
13 | CCCC[C@H]1CN(c2cccc(C)c2C)C(=O)CN1Cc1cncn1Cc1ccc(C#N)cc1 [Compound 2n, (S)-4-((5-((2-butyl-4-(2,3-dimethylphenyl)-5-oxopiperazin-1-yl)methyl)-1H-imidazol-1-yl)methyl)benzonitrile] | 2200 ± 1300 nM | had little effect or were slightly deleterious | 
14 | CCCC[C@H]1CN(c2cccc(OC(F)(F)F)c2)C(=O)CN1Cc1cncn1Cc1ccc(F)cc1 [Compound 2g, (S)-5-butyl-4-((1-(4-fluorobenzyl)-1H-imidazol-5-yl)methyl)-1-(3-(trifluoromethoxy)phenyl)piperazin-2-one] | 710 ± 240 nM |  | 
15 | N#Cc1ccc(Cn2cncc2CN2CCN(c3cccc(OC(F)(F)F)c3)C(=O)C2)cc1 [Compound 2j, (S)-4-((5-((3-Oxo-4-(3-(trifluoromethoxy)phenyl)piperazin-1-yl)methyl)-1H-imidazol-1-yl)methyl)benzonitrile] | 2700 ± 1100 nM | had little effect or were slightly deleterious | 
16 | CCCC[C@H]1CN(c2cccc(Cl)c2)C(=O)CN1Cc1cncn1Cc1ccc(C#N)cc1 [Compound 2a, (S)-4-((5-((2-Butyl-4-(3-chlorophenyl)-5-oxopiperazin-1-yl)methyl)-1H-imidazol-1-yl)methyl)benzonitrile] | 100 ± 10 nM |  | 
17 | N#Cc1cc(Cn2cncc2CN2CCN(c3cccc(OC(F)(F)F)c3)C(=O)C2)ccc1Oc1ccccc1 [Compound 2v] | 320 ± 100 nM |  | 
18 | CCCC[C@H]1CN(c2cccc(OC(F)(F)F)c2)C(=O)CN1Cc1cncn1Cc1ccc(F)c(C#N)c1 [Compound 2p, (S)-5-((5-((2-Butyl-5-oxo-4-(3-(trifluoromethoxy)phenyl)piperazin-1-yl)methyl)-1H-imidazol-1-yl)methyl)-2-fluorobenzonitrile] | 180 ± 100 nM |  | 
19 | CCCC[C@H]1CN(c2cccc(Cl)c2)C(=O)CN1Cc1cncn1Cc1ccc(Cl)cc1 [Compound 2c, (S)-5-Butyl-4-((1-(4-chlorobenzyl)-1H-imidazol-5-yl)methyl)-1-(3-chlorophenyl)piperazin-2-one] | 1600 ± 800 nM |  | 
20 | CCCC[C@H]1CN(c2ccccc2)C(=O)CN1Cc1cncn1Cc1ccc(Br)cc1 [Compound 2m, (S)-4-((1-(4-Bromobenzyl)-1H-imidazol-5-yl)methyl)-5-butyl-1-phenylpiperazin-2-one] | 920 ± 510 nM |  | 
21 | N#Cc1ccc(Cn2cncc2CN2CCN(c3cccc(OC(F)(F)F)c3)C(=O)C2)cc1F [Compound 2s, 2-Fluoro-4-((5-((3-Oxo-4-(3-(trifluoromethoxy)phenyl)piperazin-1-yl)methyl)-1H-imidazol-1-yl)methyl)benzonitrile] | 120 ± 40 nM | 20 fold | 
22 | CCCC[C@H]1CN(c2cccc(Cl)c2)C(=O)CN1Cc1cncn1Cc1ccc(Br)cc1 [Compound 2b, (S)-4-((1-(4-Bromobenzyl)-1H-imidazol-5-yl)methyl)-5-butyl-1-(3-chlorophenyl)piperazin-2-one] | 1100 ± 780 nM |  | 
